Measured values taken from US5569649A, “Anti-inflammatory treatment method” (Phytopharm (NA) N.V., priority 1994, dated 1996).
“Also recorded” adds a separate entry of the source.

What was measured:
[1] = Hypoxoside metabolites from urine after oral hypoxoside (HPLC); assay type: in vivo, human; details: urine over 24 h after oral hypoxoside 1 g
Method: Example 7 describes the characterization of the rooperol metabolites which were excreted in the urine of the same subject. Urine from the same volunteer as above was collected over 24 hours following administration of the hypoxoside. The collected sample was filtered and purified by passage through a column bed of C18-bonded silica.
The urine from the volunteer in Example 6 was collected over the first 24 hours following administration of hypoxoside and then processed as follows. C18-bonded silica sorbent material (200 g, 40 μm) was pre-treated with methanol and water via a column bed. Filtered urine (5 l) was passed through the sorbent bed, followed by elution in sequence with water (400 ml), aqueous methanol (10% v/v, 400 ml), aqueous methanol (30% v/v, 800 ml) and finally with methanol (400 ml) and water (400 ml). The aqueous methanol fraction (30% v/v, 800 ml) was diluted with water (1600 ml) and again passed through the sorbent bed which was then eluted with water (400 ml) and finally with methanol (400 ml). The final methanol solution was evaporated under vacuum at 50° C. to an aqueous residue which was lyophilized to yield 1 g of a mixture of hypoxoside metabolites and endogenous urine components.
A suitable volume of filtered aqueous solution of this residue (10 mg/ml) was injected onto the in-line pre-column of the analytical HPLC system (Example 5) such that 3 fractions designated A, B, and C having the same retention times as the corresponding peaks observed in serum (Example 6) were collected at the column outlet (see FIG. 4). These fractions were rendered free of mobile phase buffer salts by standard reverse phase sorption technique and lyophilized to dryness.

[2] = tested on: IL-1β production by lipopolysaccharide-stimulated human peripheral blood mononuclear cells; experiment: Inhibition of IL-1β production by LPS-stimulated human PBMCs (ELISA); assay type: cell-based; details: for inhibition of IL-1β production, in words: activated human mononuclear cells, 1-10 μM rooperol
Method: (§1) In the study detailed in Example 4, cultured PBMCs enriched in monocytes were stimulated with lipopolysaccharide (20 μg/ml) in the presence and absence of rooperol at concentrations of 1-10 μM. After overnight incubation, the cells were collected and lysed, and the concentrations of TNF-α and IL-1β were measured by ELISA.
(§2) Peripheral blood mononuclear cells (PBMs) from normal human donors were separated on a Ficoll-Paque gradient and enriched in monocytes by adherence. PBMs were cultured in 12-well plates (2×10^6 cells/ml/well) in RPMI 1640 supplemented with 5% fetal calf serum.
(§3) Cultures were stimulated with lipopolysaccharide (LPS, 20 ug/ml), with or without rooperol at concentrations of 1, 2, 5, and 10 μM, and incubated overnight in 5% CO2. The cells were pelleted, resuspended in RPMI medium, and freeze-thawed five times to produce lysates. All samples were stored at -20° C. until cytokine concentrations were determined by commercial ELISA assays.

[3] = tested on: TNF-α production by lipopolysaccharide-stimulated human peripheral blood mononuclear cells; experiment: Inhibition of TNF-α production by LPS-stimulated human PBMCs (ELISA); assay type: cell-based; details: for inhibition of TNF-α production, in words: LPS-stimulated human PBMCs, 1-10 μM rooperol
Method: as §1, §2, §3

[4] = Rooperol metabolites in serum after oral hypoxoside (HPLC); assay type: in vivo, human; details: for presence in serum (HPLC peak): 2 h after oral hypoxoside 1 g, one human volunteer
Method: The analytical column (4.6×250 mm) was packed with end-capped C8-bonded silica of 5 μm regular particle size (Whatman, Maidstone, England), while a guard column (2.1×75 mm) was packed with pellicular C18-bonded silica (Whatman). An in-line extraction pre-column (2.1×30 mm) was packed with preparative grade C18-bonded silica, 40 μm particle size (Analytichem International, Harbor City, Calif.).
Operating conditions involved a linear solvent gradient programmed at a flow rate of 1.5 ml/min starting with mobile phase A (0.05M KH2 PO4) to which 10% mobile phase B (acetonitrile-isopropanol, 80:20 v/v) was added after 0.01 min. This mixture was maintained for 1 minute after which a linear gradient of mobile phases A and B was begun, ending at 70% B after 16 minutes. The column temperature was maintained at 50° C.
The in-line extraction pre-column was loaded with sample (dissolved in 50 μl ethanol or in up to 200 μl of mobile phase A in the case of purified compounds; or a 200 μl aliquot of serum or urine from a human subject) and made up to 500 μl with an aqueous solution containing 8M guanidinium chloride and 1M ammonium sulfate. Blood samples were first converted to sera prior to analysis. The extraction column was flushed before and after sample introduction with 500 μl of aqueous 0.5M ammonium sulfate. The solutes trapped on the in-line extraction column were then eluted onto the analytical column by mobile phase after column switching and initiation of the analysis.
The detector was programmed to monitor the eluant at 260 nm and also to record absorption spectra from 200-400 nm.

[5] = HPLC of fecal specimen after oral hypoxoside; assay type: in vivo, human; details: after oral hypoxoside 1 g
Method: In addition, a fecal specimen was also obtained from the subject and, following extraction, was analyzed by HPLC as above (FIG. 5).

[6] = Susceptibility to air oxidation; assay type: physicochemical
[7] = Phase I dosing: hypoxoside and metabolites in serum; assay type: in vivo; details: oral hypoxoside preparation 1.6, 2.4 and 3.2 g, 20 human subjects
Description: In a Phase I dose-ranging and toxicity study, 20 human subjects were given oral doses of a hypoxoside preparation obtained by the methanol extraction procedure described in Example 1. The dosages were 1.6, 2.4, and 3.2 g. Following administration of the hypoxoside preparation, blood samples were collected periodically from the subjects for measurement of hypoxoside and its metabolites. The samples were converted to sera and processed as described in Example 5. The only hypoxoside/rooperol compounds detected were the sulfate and glucuronide metabolites of rooperol noted in Examples 6 and 7.

[8] = Anti-inflammatory activity (general statement)
[9] = Pharmacokinetics of hypoxoside metabolites, multiple-dose study; assay type: in vivo, human; details: 800 mg H. rooperii methanol-extract 3 times daily for 9 days
Method: In a random, multiple-dose study, 6 subjects received 800 mg of H. rooperii methanol-extract 3 times daily for 9 days, and blood samples were collected daily for 12 days (with the exception that no samples were collected on day 11).

Row | Structure (SMILES) | presence in urine (HPLC peak) [1] | IC50 ([2]; Homo sapiens, PBMC, LPS 20 μg/ml, overnight incubation, FIG. 2B, read-out: half-maximal inhibition of IL-1β production) [nM] | inhibition of IL-1β production, in words [2] | inhibition of TNF-α production ([3]; 10 μM rooperol, LPS 20 μg/ml) | IC50 ([3]; Homo sapiens, PBMC, LPS 20 μg/ml, overnight incubation, FIG. 2A, read-out: half-maximal inhibition of TNF-α production) [nM] | inhibition of TNF-α production, in words [3] | presence in serum (HPLC peak) [4] | presence in fecal specimen (HPLC peak) [5] | susceptibility to air oxidation [6] | detection in serum [7] | anti-inflammatory activity [8] | toxicity of metabolites, in words ([4]; oral hypoxoside, humans) | uptake into the bloodstream ([4]; oral hypoxoside, humans) | relative abundance of metabolite in serum [9]
1 | Oc1ccc(C#CC/C=C/c2ccc(O)c(O)c2)cc1O [rooperol] | None of the other urinary peaks corresponded to rooperol or hypoxoside | 1000 to 2000 | dose-dependent inhibition; also recorded: potent inhibitor | nearly complete inhibition | 1000 to 2000 | dose-dependent inhibition; also recorded: potent inhibitor | None of these peaks corresponded to rooperol or hypoxoside | Only one major peak was observed, with a retention time corresponding to that of rooperol | susceptible to air oxidation | Neither hypoxoside nor rooperol could be detected | significant anti-inflammatory activity |  |  | 
2 | OC[C@H]1O[C@@H](Oc2ccc(C#CC/C=C/c3ccc(O[C@@H]4O[C@H](CO)[C@@H](O)[C@H](O)[C@H]4O)c(O)c3)cc2O)[C@H](O)[C@@H](O)[C@@H]1O [hypoxoside] | None of the other urinary peaks corresponded to rooperol or hypoxoside |  | inactive |  |  | inactive | None of these peaks corresponded to rooperol or hypoxoside | No peaks were detectable |  | Neither hypoxoside nor rooperol could be detected |  | metabolized to non-toxic derivatives | taken up rapidly into the bloodstream | 
3 | O=S(=O)(O)Oc1ccc(C#CC/C=C/c2ccc(OS(=O)(=O)O)c(O)c2)cc1O [C, rooperol 4,4'-disulfate] | found in the urine sample |  |  |  |  |  | appearance of three new peaks |  |  |  |  |  |  | minor metabolites
4 | O=C(O)[C@H]1O[C@@H](Oc2ccc(C#CC/C=C/c3ccc(O[C@@H]4O[C@H](C(=O)O)[C@@H](O)[C@H](O)[C@H]4O)c(O)c3)cc2O)[C@H](O)[C@@H](O)[C@@H]1O [A, rooperol 4,4'-diglucuronide] | found in the urine sample |  |  |  |  |  | appearance of three new peaks |  |  |  |  |  |  | minor metabolites
